Experiments:
Assay type in all cases: in vitro ADME, human
Caco-2 cell monolayer [1] = experiment: Caco-2 permeability of free PEHS extract: compounds detected in transport medium, cytoplasm and membrane; settings: free PEHS 2500 μg/mL; for Compound detected in transport medium, Ap-Bas / Compound detected in transport medium, Bas-Ap: receiver chamber; for Compound detected in transport medium, Bas-Ap: basolateral to apical
From the text: (§1) One of the aims of this study was to compare the intestinal absorption of HS compounds when the PEHS extract was in a free form or in an encapsulated formulation, using the Caco-2 model system. This model is a well-established in vitro model for the investigation of the intestinal permeability of different compounds or drugs. Prior to the transport studies, the Caco-2 cell monolayer was established and validated. Monolayer integrity and reliability were ensured by measuring the transepithelial electrical resistance (TEER) values, which remained stable during the assay with the experimental conditions assayed. Afterwards, samples from apical and basolateral compartments obtained at different time points and cytoplasmic and membrane fractions of the cell monolayer collected at the end of the assay (see Section 3.3 and Section 3.4) were analyzed by UHPLC-ESI-UHR-Qq-TOF-MS in order to identify which compounds crossed the Caco-2 cell monolayer.
(§2) To assess the potential intestinal absorption of PEHS and pure compounds, experiments were conducted using Caco-2 cells derived from human colorectal adenocarcinoma cells (obtained from the American Type Culture Collection). Cells were cultured in Dulbecco’s Modified Eagle Medium (DMEM) containing 10% (v/v) fetal bovine serum (FBS) and incubated at 37 °C in a humidified 5% CO2 air atmosphere. Cell monolayers were prepared by seeding 5 × 10^5 Caco-2cells/well on a six-well Transwell insert filter. Monolayers were used 19–22 days after seeding. The integrity of each cell monolayer was checked by measuring its transepithelial electrical resistance (TEER) with an epithelial voltohmmeter (EVOM, World Precision Instrument, Sarasota, FL, USA) before and after the experiments. The culture medium was replaced with fresh medium 24 h before the transport experiments. Compounds were added after washing the Caco-2 cell monolayer twice with pre-warmed HBSS medium (pH 7.4), in the apical or in the basolateral side, to evaluate the transport characteristics of the cells. Permeability studies were done by adding the PEHS solution at a concentration of 2500 μg/mL, quercetin at 18.1 μg/mL, quercetin-3-glucoside at 46.4 μg/mL, quercetin-3-glucuronide at 47.8 μg/mL, and N-feruloyltyramine at 31.3 μg/mL, while the receiving chamber contained the corresponding volume of transport medium. Samples were taken at different times (30, 60, 90, 120 min) and stored at −80 °C until their treatment.
(§3) After the permeation study, the Caco-2 cell monolayer was collected and the cells were lysed with three subsequent freezing-thawing cycles followed by bath sonication, of 10 min each step. Then, the samples were centrifuged during 15 min at 14,000 rpm and 4 °C, and the supernatants (cytoplasmic fraction) and the pellets (membranes) were stored at −80 °C.
(§4) The samples collected in the receiving chamber during the permeability assays were centrifuged for 15 min at 12,000 rpm and 4 °C. […] Finally, the samples were stored at −80 °C until the analysis, avoiding possible degradations.
(§5) The cytoplasms and cell membranes collected at the end of the permeability assays were subjected to protein precipitation using methanol, vortex-mixed, kept at −20 °C for 2 h and centrifuged at 12,000 rpm for 15 min at 4 °C. Finally, the supernatants were evaporated in a vacuum concentrator, dissolved in 100 μL of methanol, and then spiked with 10 μg/mL of apigenin, used as an internal standard for their analysis.
For the analysis of the samples, a Dionex Ultimate 3000 UHPLC (Thermo Scientific, Sunnyvale, CA, USA) was used coupled with an ultra-high resolution quadrupole time-of-flight mass spectrometer maXis (UHR-Qq-TOF-MS) from Bruker Daltonik (Bremen, Germany). The chromatographic separation was performed in a Zorbax Eclipse Plus C-18 column (4.6 × 150 mm, 1.8 μm) at a flow rate of 0.3 mL/min using an injection volume of 5 μL.

Caco-2 cell monolayer [2] = experiment: Caco-2 permeability of encapsulated (liposome) PEHS extract: compounds detected in transport medium, cytoplasm and membrane; settings: encapsulated PEHS 2500 μg/mL; for Compound detected in transport medium, Bas-Ap / Compound detected in transport medium, Ap-Bas: receiver chamber
From the text: as §1
Primary aqueous extract was obtained from sun-dried calyces from plants harvested in Senegal, with an approximate plant-to-extract ratio of 5:1 as previously described. The purified PEHS extract was kindly provided by Monteloeder, Inc. (Elche, Alicante, Spain) and was essentially prepared as previously described. The retained phenolic fraction was finally eluted with 95% ethanol and 0.01% trifluoroacetic acid (TFA), rotatory evaporated and freeze-dried. The PEHS encapsulated formulation was performed using empty liposomes, whose final concentration was 2 mM, adding soy phosphatidylcholine to the blend. To permeabilize the liposome membrane ethanol 10% was used. The extract was dissolved in HBSS at the desired concentration (2500 μg/mL), stirred for 10 min, and finally filtered through 0.45 μm three times (PVD filter).
as §2, §3, §4

Caco-2 cell monolayer [3] = experiment: Caco-2 permeation of pure compounds related to PEHS (individual permeability assays); settings: for Concentration in the receptor chamber, Basolateral-Apical Flux: 30 min (so in the source); for Concentration in the receptor chamber, Basolateral-Apical Flux / Concentration in the receptor chamber, Apical-Basolateral Flux: donor: quercetin 18.1, quercetin-3-glucoside 46.4, quercetin-3-glucuronide 47.8, N-feruloyltyramine 31.3 μg/mL, X ± SD; for Absorption across the Caco-2 intestinal barrier model (in words): pure compounds
Protocol: Standard calibration curves of the compounds under study were prepared using apigenin at a concentration of 10 μg/mL as an internal standard. […] The limits of detection (LODs) and limits of quantification (LOQs) for individual compounds in standard solutions were also calculated as S/N = 3 and S/N = 10, respectively, where S/N is the signal to noise ratio (Table 3). The compound concentrations were subsequently determined using the corrected area of each individual compound (three replicates) and by interpolation in the corresponding calibration curve. Repeatability of the proposed method was measured as the relative standard deviation (RSD, %) in terms of concentration. A mixed solution containing the analytes was injected several times (n = 3) on the same day (intraday precision) and three times on three consecutive days (interday precision, n = 9). Intraday repeatability of the method developed for all the analytes was from 0.11% to 1.93%, whereas the interday repeatability ranged from 0.17% to 2.06%.
as §2, §3
The samples collected in the receiving chamber during the permeability assays were centrifuged for 15 min at 12,000 rpm and 4 °C. The supernatant was spiked with apigenin stock solution, used as an internal standard at a concentration of 10 μg/mL, in order to avoid irreproducibility of results between analyses. Finally, the samples were stored at −80 °C until the analysis, avoiding possible degradations.
as §5
For the analysis of the samples, a Dionex Ultimate 3000 UHPLC (Thermo Scientific, Sunnyvale, CA, USA) was used coupled with an ultra-high resolution quadrupole time-of-flight mass spectrometer maXis (UHR-Qq-TOF-MS) from Bruker Daltonik (Bremen, Germany). […]

[4] = membrane fraction at end of assay, basolateral to apical
[5] = cytoplasmic fraction at end of assay, apical to basolateral
[6] = membrane fraction at end of assay, apical to basolateral

| Molecule | Compound detected in transport medium, Ap-Bas (Caco-2 cell monolayer [1]; apical to basolateral) | Compound detected in transport medium, Bas-Ap (Caco-2 cell monolayer [1]) | Compound detected in transport medium, Bas-Ap (Caco-2 cell monolayer [2]; basolateral to apical) | Compound detected in cytoplasm, Ap-Bas (Caco-2 cell monolayer [2]; [5]) | Concentration in the receptor chamber, Basolateral-Apical Flux (Caco-2 cell monolayer [3]) | Concentration in the receptor chamber, Apical-Basolateral Flux (Caco-2 cell monolayer [3]; 30 min) | Concentration in the receptor chamber, Apical-Basolateral Flux (Caco-2 cell monolayer [3]; 60 min) | Concentration in the receptor chamber, Apical-Basolateral Flux (Caco-2 cell monolayer [3]; 90 min) | Concentration in the receptor chamber, Apical-Basolateral Flux (Caco-2 cell monolayer [3]; 120 min) | Absorption across the Caco-2 intestinal barrier model (in words) (Caco-2 cell monolayer [3]) | also measured |
| --- | --- | --- | --- | --- | --- | --- | --- | --- | --- | --- | --- |
| O=C(/C=C/c1ccc(O)cc1)O[C@@H]1C[C@](O)(C(=O)O)C[C@@H](O)[C@H]1O [Coumaroylquinic acid] |  | + |  |  |  |  |  |  |  |  | Compound detected in membrane, Bas-Ap (Caco-2 cell monolayer [2]; [4]): + |
| COc1cc(/C=C/C(=O)NCCc2ccc(O)cc2)ccc1O [N-feruloyltyramine] | + | + | + |  | 1350 ± 40 ng/mL | 690 ± 20 ng/mL | 2300 ± 200 ng/mL | 4200 ± 500 ng/mL | 6600 ± 800 ng/mL | significant absorption | Compound detected in transport medium, Ap-Bas (Caco-2 cell monolayer [2]; apical to basolateral): + |
| O=c1c(O[C@@H]2O[C@H](CO)[C@@H](O)[C@H](O)[C@H]2O)c(-c2ccc(O)c(O)c2)oc2cc(O)cc(O)c12 [Quercetin-3-glucoside] |  |  |  |  | <LOQ | <LOQ | <LOQ | <LOQ | 470 ± 30 ng/mL | lesser extent |  |
| O=C(O)[C@H]1O[C@@H](Oc2c(-c3ccc(O)c(O)c3)oc3cc(O)cc(O)c3c2=O)[C@H](O)[C@@H](O)[C@@H]1O [Quercetin-3-glucuronide] |  |  |  |  | <LOQ | not detected | not detected | not detected | <LOQ | lesser extent |  |
| O=c1c(O)c(-c2ccc(O)c(O)c2)oc2cc(O)cc(O)c12 [Quercetin] | + | + |  | + | 1100 ± 400 ng/mL | 280 ± 20 ng/mL | 490 ± 30 ng/mL | 1330 ± 20 ng/mL | 1320 ± 10 ng/mL | significant absorption | Time at which maximum permeation / maximum concentration was reached (Caco-2 cell monolayer [3]; both flux directions, sampling at 30, 60, 90, 120 min): 90 min; Final concentration in the basolateral-apical flux relative to the opposite flux (Caco-2 cell monolayer [3]; end of assay): around five-fold; Compound detected in cytoplasm, Ap-Bas (Caco-2 cell monolayer [1]; [5]): +; Compound detected in membrane, Ap-Bas (Caco-2 cell monolayer [1]; [6]): + |
| Methylepigallocatechin |  | + |  |  |  |  |  |  |  |  |  |

The next lines start with results.

| Compound detected in transport medium, Ap-Bas (Caco-2 cell monolayer [1]; apical to basolateral) | Compound detected in transport medium, Bas-Ap (Caco-2 cell monolayer [1]) | Compound detected in transport medium, Bas-Ap (Caco-2 cell monolayer [2]; basolateral to apical) | Compound detected in cytoplasm, Ap-Bas (Caco-2 cell monolayer [2]; [5]) | Concentration in the receptor chamber, Basolateral-Apical Flux (Caco-2 cell monolayer [3]) | Concentration in the receptor chamber, Apical-Basolateral Flux (Caco-2 cell monolayer [3]; 30 min) | Concentration in the receptor chamber, Apical-Basolateral Flux (Caco-2 cell monolayer [3]; 60 min) | Concentration in the receptor chamber, Apical-Basolateral Flux (Caco-2 cell monolayer [3]; 90 min) | Concentration in the receptor chamber, Apical-Basolateral Flux (Caco-2 cell monolayer [3]; 120 min) | Absorption across the Caco-2 intestinal barrier model (in words) (Caco-2 cell monolayer [3]) | Molecule | also measured |
| --- | --- | --- | --- | --- | --- | --- | --- | --- | --- | --- | --- |
| + | + | + |  |  |  |  |  |  |  | O=C(/C=C/c1ccc(O)c(O)c1)O[C@@H]1CC(C(=O)O)=C[C@@H](O)[C@H]1O [5-O-caffeoylshikimic acid] |  |
| + | + | + | + |  |  |  |  |  |  | O=C(/C=C/c1ccc(O)c(O)c1)O[C@H]1[C@H](O)C[C@](O)(C(=O)O)C[C@H]1O [Cryptochlorogenic acid] | Compound detected in cytoplasm, Bas-Ap (Caco-2 cell monolayer [2]; cytoplasmic fraction at end of assay, basolateral to apical): +; Compound detected in transport medium, Ap-Bas (Caco-2 cell monolayer [2]; apical to basolateral): + |
|  |  |  | + |  |  |  |  |  |  | COC(=O)C1OC(=O)CC1(O)C(=O)OC (stereo not drawn) [Hibiscus acid dimethylesther] | Compound detected in membrane, Ap-Bas (Caco-2 cell monolayer [2]; [6]): +; Compound detected in membrane, Bas-Ap (Caco-2 cell monolayer [2]; [4]): + |
|  |  |  | + |  |  |  |  |  |  | O=C1C[C@](O)(C(=O)O)[C@@H](C(=O)O)O1 [Hibiscus acid] |  |
|  | + | + | + |  |  |  |  |  |  | COC(=O)c1cc(O)c(O)c(OC(=O)c2cc(O)c(O)c(O)c2)c1 [Methyldigallate, Methyl digallate] |  |
